Test results as given in patent publication US20110178023A1, “Use Of SCO-Spondin Peptides For Inhibiting Or Preventing Neuronal Apoptosis Mediated By Cell Death Receptor Ligands” (Institut National de la Sante et de la Recherche Medicale …, priority 2007, published 2011).

Tested on: embryonic rat hippocampal cells
Experiment: Apoptosis detection (TUNEL, DAPI counter-staining) in treated hippocampal cell cultures
Type: cell-based
Details: for apoptosis induced by cell death receptor pathway (Fas, TRAIL-R) in hippocampal cells: TSR peptide added to culture medium, 7 days of treatment; for number of apoptotic cells with death receptor ligand alone: FasL 20 ng/mL or TRAIL 80 ng/mL alone
Procedure: FIG. 2: Histogramm representing the percentage of apoptotic cells outside the clusters compared with the total number of cells, data provided by only one experiment realized in triplicate. In each assay, apoptotic labelling with TUNEL method were counted on 4 photos aleatory on each slide, and having always at least 1 neurosphere. The cultures were treated (cases TSR, FasL, TSR+FasL, TRAIL, TSR+TRAIL, FasL+TRAIL and TSR+FasL+TRAIL) or not treated (control, c) during 7 days with a TSR peptide concentration of 375 μg/mL and/or 20 ng/mL of FasL and/or 80 ng/mL of TRAIL).
Cultures of hippocampal cells from foetal rats: Cells were obtained from E18 rat brains. Tissues were removed in dissection medium (Hank's Balanced Salt Solution, HBSS plus antibiotics). Composition of dissection medium HBSS plus antibiotics): • potassium chloride (KCl): 400 mg/L • potassium phosphate (KH2PO4): 60 mg/L • sodium bicarbonate (NaHCO3): 350 mg/L • sodium chloride (NaCl): 8000 mg/L • sodium phosphate (Na2HPO4): 48 mg/L • D-glucose: 1000 mg/L • penicillin-streptomycin: 100 units/mL
Meninges were removed from the embryos brains and hippocampus was dissected in a sterile petri dish in HBSS plus antibiotic medium. After centrifugation cells were ressuspended in culture medium MEM with Earl Salts supplemented with B27, EGF, FGF-2 and antibiotics. The composition of the culture medium was the following: • L-arginine hydrochloride: […] • L-cystine: 24 mg/L • L-glutamine: 292 mg/L • L-histidine-H2O Hydrochloride: 42 mg/L • L-isoleucine: 52 mg/L • L-leucine 52 mg/L • L-lysine Hydrochloride: 73 mg/l, • L-methionine: 15 mg/L • L-phenylalanine: 32 mg/L • L-threonine: 48 mg/L • L-tryptophane: 10 mg/L • L-tyrosine: 36 mg/L • L-valine: 46 mg/L • choline Chloride: 1 mg/L • D-calcium pantothenate: 1 mg/L • folic acid: 1 mg/L • I-inositol: 2 mg/L • Niacinamide: 1 mg/L • pyridoxal Hydrochloride: 1 mg/L • Riboflavine: 0.1 mg/L • thiamine Hydrochloride: 1 mg/L • calcium chloride (CaCl2-2H2O): 264 mg/L • magnesium sulfate (MgSO4-7H2O): 200 mg/L • potassium chloride (KCl): 400 mg/L • sodium bicarbonate (NaHCO3): 2200 mg/L • sodium chloride (NaCl): 6800 mg/L • sodium phosphate (NaH2PO4-2H2O): 158 mg/L • D-glucose: 4500 mg/L • phenol red: 10 mg/L • Sodium pyruvate: 110.04 mg/L • B27 medium (Invitrogen) 50×: 2% v/v • EGF: 20 μg/L • FGF-2: 20 μg/L • Penicillin-streptomycin: 100 units/mL
Hippocampus fragments were dissociated mechanically with 1 syringe 1 ml and 1 needle 25G and added with 1 mL of culture medium then centrifuged at 1200 rpm for 10 min. The supernatant is then removed and the cell pellet is resupended in 1 mL of culture medium. Other mechanic dissociation was performed with a seringe 1 mL and a needle 25G. Cell count was determined with Malassez hemocytometer and viability of cells was evaluated by counting the cells which have not absorbed the Trypan blue. Then cells are seeded in 48-well plates, at 40 000 cells by well in 500 μL of culture medium, on culture dishes precovered with collagen.
Preparation of precovered dishes with collagen: After an incubation of 10 min in absolute ethanol, the glass dishes were sterilized by heating 2H at 120° C. Sterilized glass dishes (10 mm diameter) was put on culture well and covered with a 0.1 mg/mL collagen calf skin solution. After 1 hr incubation at 37° C., the excess of solution is removed and the plate is maintained one night under hood of culture in order to let dry the plates. Before use, the wells were washed twice with 200 μL sterile distillated water.
Treatment of embryonic rat hippocampal cells: After 5 days of culture, cells were cultured in medium without growth factors (MEM with Earl salts, B27 and antibiotics) with different conditions of treatment combinating TSR peptide (WSGWSSCSRSCG—SEQ ID No 8) (375 μg/mL), FasL (20 ng/mL) and TRAIL (80 ng/mL). […]

In the case of “WSGWSSCSRSCG [TSR peptide, peptide derived from the TSR (thrombospondin type 1 units) of SCO-spondin]”, the “number of apoptotic cells, apoptosis induced by FasL” value (TSR peptide 375 μg/mL + FasL 20 ng/mL, 7 days, compared to FasL culture, FIG. 2) is reported as “decreased”, the “number of apoptotic cells, apoptosis induced by TRAIL” value (TSR peptide 375 μg/mL + TRAIL 80 ng/mL, 7 days, compared to TRAIL culture, FIG. 2) is reported as “decreased in the presence of TSR peptide to a level comparable to control cells” and the “level of apoptosis (final statement, presumably FasL+TRAIL culture)” value (TSR peptide 375 μg/mL, 7 days, FIG. 2, inducer not given) is reported as “restores the basal level of apoptosis”. For the same molecule, the “apoptosis induced by cell death receptor pathway (Fas, TRAIL-R) in hippocampal cells” value was “inhibits the apoptosis”, the “apoptosis induced by cell death receptor pathway (Fas, TRAIL-R) in hippocampal cells” value (listed as peptide TSR) was “decreased” and the “effect on basal apoptosis (number of apoptotic cells)” value (TSR peptide alone 375 μg/mL, 7 days, compared to control cultures, FIG. 2) was “no effect”.

B1: TRAIL: TNF-related apoptosis inducing ligand, cell death receptor ligand used to induce apoptosis (protein, UniProt P50591 1-281, looked up)
Tumor necrosis factor ligand …: MAMMEVQGGPSLGQTCVLIVIFTVLLQSLCVAVTYVYFTNELKQMQDKYSKSGIACFLKEDDSYWDPNDEESMNSPCWQVKWQLRQLVRKMILRTSEETISTVQEKQQNISPLVRERGPQRVAAHITGTRGRSNTLSSPNSKNEKALGRKINSWESSRSGHSFLSNLHLRNGELVIHEKGFYYIYSQTYFRFQEEIKENTKNDKQMVQYIYKYTSYPDPILLMKSARNSCWSKDAEYGLYSIYQGGIFELKENDRIFVSVTNEHLIDMDHEASFFGAFLVG
B1 was tested, and the “number of apoptotic cells with death receptor ligand alone” value (7 days, FIG. 2) was “more important than in the presence of FasL”.

B2: FasL: Fas ligand, cell death receptor ligand of the TNF superfamily used to induce apoptosis (protein, UniProt P48023 130-281, looked up)
Tumor necrosis factor ligand …: QIGHPSPPPEKKELRKVAHLTGKSNSRSMPLEWEDTYGIVLLSGVKYKKGGLVINETGLYFVYSKVYFRGQSCNNLPLSHKVYMRNSKYPQDLVMMEGKMMSYCTTGQMWARSSYLGAVFNLTSADHLYVNVSELSLVNFEESQTFFGLYKL
In the case of B2, the “number of apoptotic cells with death receptor ligand alone” value (7 days, FIG. 2) is reported as “increased”.
